Source: patent publication US9067943B2, “[1,2,3]triazolo[4,5-D]pyrimidine derivatives” (priority 2011, dated 2015)
Like-named read-outs stand apart in the source and are kept apart here.

Columns and labels:
[1] = target: T1, human CB1 receptors (Homo sapiens, UniProt P21554); experiment: cAMP assay; format: cell-based
T1 construct: expressed in transfected cells; host or cells: CHO cells
How it was run: (§1)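 CHO cells expressing human CB1 or CB2 were preincubated 30 min at 30 °C in Krebs Ringer bicarbonate buffer with 1 mM IBMX, then exposed to compounds for 30 min at 30 °C. cAMP was measured by time-resolved FRET against a cAMP standard curve, and EC50 values were derived.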

[2] = target: T2, human CB2 receptors (Homo sapiens, UniProt P34972); experiment: cAMP assay; format: cell-based
T2 construct: expressed in transfected cells; host or cells: CHO cells
How it was run: as §1

T2 sequence (P34972 whole entry): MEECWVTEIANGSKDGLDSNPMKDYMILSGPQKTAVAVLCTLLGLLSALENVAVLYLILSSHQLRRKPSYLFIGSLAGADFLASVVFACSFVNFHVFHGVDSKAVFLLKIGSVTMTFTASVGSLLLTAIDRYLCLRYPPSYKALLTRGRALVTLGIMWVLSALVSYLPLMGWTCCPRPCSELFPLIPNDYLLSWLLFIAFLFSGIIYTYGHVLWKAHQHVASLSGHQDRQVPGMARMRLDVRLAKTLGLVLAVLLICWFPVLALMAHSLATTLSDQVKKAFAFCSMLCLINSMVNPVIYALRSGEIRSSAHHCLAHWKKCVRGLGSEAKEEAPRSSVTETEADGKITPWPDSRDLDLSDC
T1 sequence (P21554 whole entry): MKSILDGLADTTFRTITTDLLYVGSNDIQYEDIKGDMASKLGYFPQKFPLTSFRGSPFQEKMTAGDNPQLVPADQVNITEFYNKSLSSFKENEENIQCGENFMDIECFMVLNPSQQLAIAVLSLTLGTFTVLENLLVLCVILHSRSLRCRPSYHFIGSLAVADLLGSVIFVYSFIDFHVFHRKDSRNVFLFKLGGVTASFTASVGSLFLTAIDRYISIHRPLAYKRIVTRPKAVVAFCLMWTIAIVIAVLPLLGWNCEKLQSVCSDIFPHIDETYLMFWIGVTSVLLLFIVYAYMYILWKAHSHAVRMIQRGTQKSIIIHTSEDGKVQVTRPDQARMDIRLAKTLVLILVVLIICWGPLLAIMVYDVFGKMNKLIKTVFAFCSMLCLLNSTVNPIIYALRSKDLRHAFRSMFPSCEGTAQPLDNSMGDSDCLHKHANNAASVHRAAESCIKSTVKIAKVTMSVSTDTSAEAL

Cc1noc(Cn2nc3nc(O[C@@H](C)C(F)(F)F)nc(N4CCC(F)(F)C4)c3n2)n1 [Example 119, 7-(3,3-Difluoro-pyrrolidin-1-yl)-2-(3-methyl-[1,2,4]oxadiazol-5-ylmethyl)-5-((S)-2,2,2-trifluoro-1-methyl-ethoxy)-2H-[1,2,3]triazolo[4,5-d]pyrimidine]
EC50 [1]: > 10000 nM | EC50 ([2]; functional cAMP assay, CHO cells expressing human CB2, read-out: human CB2 EC50): 439 nM

C[C@H](Oc1nc(N2CCC(F)(F)C2)c2nn(Cc3nnnn3C)nc2n1)C(F)(F)F [Example 120, 7-(3,3-Difluoro-pyrrolidin-1-yl)-2-(1-methyl-1H-tetrazol-5-ylmethyl)-5-((S)-2,2,2-trifluoro-1-methyl-ethoxy)-2H-[1,2,3]triazolo[4,5-d]pyrimidine]
EC50 [1]: > 10000 nM | EC50 [2]: 69.4 nM

Cc1nonc1Cn1nc2nc(O[C@@H](C)C(F)(F)F)nc(N3CCC(F)(F)C3)c2n1 [Example 121, 7-(3,3-Difluoro-pyrrolidin-1-yl)-2-(4-methyl-furazan-3-ylmethyl)-5-((S)-2,2,2-trifluoro-1-methyl-ethoxy)-2H-[1,2,3]triazolo[4,5-d]pyrimidine]
EC50 [1]: > 10000 nM | EC50 [2]: 7.5 nM

C[C@H](Oc1nc(N2CCC(F)(F)C2)c2nn(CCC(F)(F)F)nc2n1)C(F)(F)F [Example 122, 7-(3,3-Difluoro-pyrrolidin-1-yl)-5-((S)-2,2,2-trifluoro-1-methyl-ethoxy)-2-(3,3,3-trifluoro-propyl)-2H-[1,2,3]triazolo[4,5-d]pyrimidine]
EC50 [1]: > 10000 nM | EC50 [2]: 8.4 nM

C[C@H](Oc1nc(N2CCC(F)(F)C2)c2nn(Cc3nnnn3C3CC3)nc2n1)C(F)(F)F [Example 123, 2-(1-Cyclopropyl-1H-tetrazol-5-ylmethyl)-7-(3,3-difluoro-pyrrolidin-1-yl)-5-((S)-2,2,2-trifluoro-1-methyl-ethoxy)-2H-[1,2,3]triazolo[4,5-d]pyrimidine]
EC50 [1]: > 10000 nM | EC50 [2]: 49.3 nM

CC(C)(C)c1nc(N2CC[C@](C)(O)C2)c2nn(Cc3ccccc3Cl)nc2n1 [Example 124-a, (S)-1-[5-tert-Butyl-2-(2-chloro-benzyl)-2H-[1,2,3]triazolo[4,5-d]pyrimidin-7-yl]-3-methyl-pyrrolidin-3-ol]
EC50 [1]: > 10000 nM | EC50 [2]: 2.5 nM

CC(C)(C)c1nc(N2CC[C@@](C)(O)C2)c2nn(Cc3ccccc3Cl)nc2n1 [Example 124-b, (R)-1-[5-tert-Butyl-2-(2-chloro-benzyl)-2H-[1,2,3]triazolo[4,5-d]pyrimidin-7-yl]-3-methyl-pyrrolidin-3-ol]
EC50 [1]: > 10000 nM | EC50 [2]: 6.8 nM

CC(C)(C)c1nc(N2CC[C@](C)(O)C2)c2nn(Cc3ccccc3C(F)(F)F)nc2n1 [Example 125-a, (S)-1-[5-tert-Butyl-2-(2-trifluoromethyl-benzyl)-2H-[1,2,3]triazolo[4,5-d]pyrimidin-7-yl]-3-methyl-pyrrolidin-3-ol]
EC50 [1]: 398 nM | EC50 [2]: 0.4 nM

CC(C)(C)c1nc(N2CC[C@@](C)(O)C2)c2nn(Cc3ccccc3C(F)(F)F)nc2n1 [Example 125-b, (R)-1-[5-tert-Butyl-2-(2-trifluoromethyl-benzyl)-2H-[1,2,3]triazolo[4,5-d]pyrimidin-7-yl]-3-methyl-pyrrolidin-3-ol]
EC50 [1]: > 10000 nM | EC50 [2]: 3.7 nM

CC(C)(C)c1nc(N2CC[C@](C)(O)C2)c2nn(Cc3ccccc3S(C)(=O)=O)nc2n1 [Example 126-a, (S)-1-[5-tert-Butyl-2-(2-methanesulfonyl-benzyl)-2H-[1,2,3]triazolo[4,5-d]pyrimidin-7-yl]-3-methyl-pyrrolidin-3-ol]
EC50 [1]: > 10000 nM | EC50 [2]: 10.6 nM

CC(C)(C)c1nc(N2CC[C@@](C)(O)C2)c2nn(Cc3ccccc3S(C)(=O)=O)nc2n1 [Example 126-b, (R)-1-[5-tert-Butyl-2-(2-methanesulfonyl-benzyl)-2H-[1,2,3]triazolo[4,5-d]pyrimidin-7-yl]-3-methyl-pyrrolidin-3-ol]
EC50 [1]: > 10000 nM | EC50 [2]: 24 nM
